Laboratory results as given in patent US9072729B2, “Method for treating fibrosis and cancer with imidazolium and imidazolinium compounds” (Agency for Science, Technology and Research, priority 2008, dated 2015).

Experiments:
[1] = tested on: liver fibrosis induced by thioacetamide (TAA); assay: Liver fibrosis in mice induced by thioacetamide (TAA); format: in vivo, mouse; conditions: TAA model, 500 mg/L in drinking water, 12 weeks
Method: FIG. 15 Effect of DBZIM and DPIM on liver fibrosis in mice. DBZIM was tested on mice induced by (a) liver toxin thioacetamide (TAA) or by (b) bile duct ligation (BDL). DPIM was also tested on mice induced by TAA (data not shown)) or by (c) bile duct ligation (BDL).
For the liver toxin thioacetamide (TAA) model, TAA was given by i.p. injection at 200 mg/kg body weight, 3 times per week, for 12 weeks, to induce hepatic fibrosis in mice. For the bile duct ligation model (BDL), adult mice were anesthetized with Ketamine (150 mg/kg)/Xylazine (10 mg/kg) via i.p. injection. An abdominal incision at the midline is made to expose the common bile conduct, which was then ligated using 5-0 silk suture. In the control animal, the bile duct is exposed, but not ligated. DBZIM or DPIM was provided to the mice in drinking water at concentrations from 1 to 1000 mg/liter. The collagen content in the fibrotic liver was assessed by the Sirius Red staining of the liver tissue sections.

HLE cells = assay: Cell based caspase 3/7 and LDH assays, HLE; parameters: species or system human; conditions: 6 hr
Method: (§1) FIG. 22. […] HLE or HepG2 cells were incubated with DBZIM of various concentrations for 6 hr, and assayed for caspase 3/7 activity and LDH releasing (expressed as % toxicity). DBZIM induced apoptosis as characterized by annexin V staining using flow cytometer in HLE (E) and HepG2 (F). Scatter plot and histogram gave the representative information on the cell population distribution while bar graphs quantified the percentage of apoptotic cells from the histogram. HLE and HepG2 cells were treated by DBZIM of various concentrations for 24 hr before harvesting for annexin V staining and flow cytometric analysis.
(§2) Capspase 3/7 activity and lactate dehydrogenase (LDH) release were measured by Fluorometric assays (Promega Corp., WI, USA). The HCC cells were cultured in 96-well plate and treated with DBZIM of various concentrations for 6 hr before assays. For caspase 3/7 assay, medium was removed and substrate buffer was added to lyse the cell and react with caspase 3/7 to give rise to fluorescence signal which was read at Ex=485 nm and Em=530 nm on a Tecan Safire II plate reader after 1 hr incubation. The caspase 3/7 activity of sample cells with the compound treatment was expressed as relative fold change after normalizing to the control cells. The LDH assay (indicative of membrane integrity) was performed using a Kit from Promega Corp according to manufactor's instructions.

HepG2 cells [2] = assay: Cell based caspase 3/7 and LDH assays, HepG2; parameters: species or system human; conditions: HepG2, 6 hr
Method: as §1, §2

HepG2 cells [3] = assay: Annexin V staining and flow cytometry, HepG2; format: cell-based, human; conditions: HepG2, 24 hr; TRAIL 100 ng/ml
Method: as §1
HLE and HepG2 cells were treated with various concentrations of DBZIM or TRAIL (100 ng/ml) for 24 hr, harvested and labeled with Annexin V-FITC (BioVision, CA, USA). The labeled cells were analysed by flow cytometry FACSCalibur ([…], NJ, USA) and CellQuest software. Cells showing green staining in the plasma membrane were considered as apoptotic cells.

survivin in HLE cells = assay: Survivin translocation assay (HCS); format: cell-based, human; conditions: 24 hr
Method: FIG. 25. DBZIM induced nucleus to cytoplasm translocation of survivin protein. (A) Representative immunocytostaining images of HLE cells treated by DBZIM (0 and 1.0 mM) for 24 hr. Arrows indicate the accumulation and the disappearance of survivin in the nucleus of the control and the DBZIM-treated cells, respectively. The images were acquired and analyzed using ArrayScan VTI HCS reader (Thermal Scientific, PA, USA) and Target Activation BioApplication software. (B) Quantitation of translocation event. Cells were grown in 96-well plate and treated by DBZIM of various concentrations for 24 hr before fixation and immunocytostaining for survivin. Lower value in “Cytoplasmic-Nuclear Difference” indicated a lower amount of cytoplasmic survivin.
HLE cells cultured in 96-well plate were treated with DBZIM for 24 hr before staining and imaging. Cells were then fixed and stained with antibodies against […] and Survivin. (Lab Vision Corp. CA, USA) and buffer reagent from Hitkit (Thermo Scientific, IL, USA). The cells were imaged and analyzed on ArrayScan VTI HCS reader (Thermal Scientific, PA, USA). Fluorescence intensity in the cytoplasmic and nuclear area was plotted for indication of cytoplasm to nucleus translocation.

U87 MG [4] = assay: Proliferation assay (MTS), glioma U87 MG; format: cell-based; conditions: Homo sapiens, U-87 MG, 48 h, determined at day 2
Method: (§3) FIG. 30. DBZIM inhibited cell proliferation in glioma cell line C6 (A) and U87 MG (C) and induced caspase 3/7 activity in C6 (B) and U87 MG (D). C6 or U87 cells were incubated with DBZIM of various concentrations for 48 hr for proliferation assay and 6 hr for caspase 3/7 activation assay. Proliferation was measured using MTS kit from Promega and expressed as relative cell proliferation with control group was normalized to 1. Caspase 3/7 activity was quantified using a kit from Promega and also expressed as relative caspase 3/7 activity of treated groups over control group.
Proliferation of Glioma cell lines: U87 MG and C6 under the treatment of DBZIM was examined using 3-(4,5-dimethylthiazol-2-yl)-5-(3-carboxymethoxyphenyl)-2-(4-sulfophenyl)-2H-tetrazolium (MTS) based proliferation assay kit (Promega, Wis., USA). MTS reagent was added to the control and treated cells (after 48 hr) directly and the absorbance signal was read at 490 nm using a Tecan Safire II plate reader.

U87 MG [5] = assay: Caspase 3/7 activity in U87 MG; format: cell-based, human; conditions: 2 mM, 6 hr
Method: as §3, §2

phospho-Ser473-Akt = assay: Western blot of phosphorylated Akt; format: cell-based, human; conditions: H1299, MCF-7, AGS and MKN28, IC50 concentration, 24 h to 72 h
Text: FIG. 32. DBZIM inhibits phosphorylation of Akt. […] Time course inhibition of phosphorylated-AKT was shown by Western blot. β-actin was used as an internal loading control.
The Akt (also known as protein kinase B) kinase signaling pathway is activated in a variety of carcinomas of lung, breast, colon, and pancreatic and other tumor types through over-expressing the Akt protein itself and/or increasing phosphorylation of Akt. This study provided evidence that DBZIM is particularly efficacious in inducing apoptosis in AGS, H1299 and MCF-7 cells through a mechanism involving the reduction in the levels of the, phospho-AKT.

Compound: [Br-].c1ccc(Cn2cc[n+](Cc3ccccc3)c2)cc1 [DBZIM, 1,3-bisbenzylimidazolium bromide]
- liver fibrosis (Sirius Red collagen) [1]: attenuated fibrosis
- LDH release (HLE cells): least affected
- caspase 3/7 activity (HLE cells): enhanced
- LDH release (HepG2 cells [2]): least affected
- caspase 3/7 activity (HepG2 cells [2]): enhanced
- apoptosis (annexin V staining) (HepG2 cells [3]): dose-dependently induced apoptosis
- survivin translocation (survivin in HLE cells): translocated from the nucleus to the cytoplasm
- IC50 (U87 MG [4]): 2100 µM
- elevation of caspase 3/7 (U87 MG [5]): 17 folds
- active form of Akt (phospho-Ser473-Akt) (phospho-Ser473-Akt): appreciable down-regulation
